In brackets after ≈: the same amount, converted by molar mass.
How the values were obtained:
Assay type in all cases: physicochemical
[1] = Suspension equilibration experiments (thermodynamically stable polymorphic form); details: at least in the temperature range from 25° C. to 60° C.
Protocol: Suspension equilibration experiments in a variety of different solvents and solvent mixtures were carried out at various temperatures.
In addition, the use of high temperatures can help overcome kinetic barriers to polymorphic interconversion.
The experiments at 5° C. were carried out to search for solvated (and additional hydrated) forms of compound 1 since experiments at low temperatures are conducive to solvate and hydrate formation.
The amorphous material was used as the starting material for several suspension equilibration experiments (temperature=5° C., 30° C., 75° C., or 90° C.; duration=1 d, 5 d, or 7 d; solvent=THF, 96:4 acetone/H2O, 98.5/1.5 acetone/H2O, 2-PrOH, or water). Since the amorphous form is in a higher energy state than the crystalline form of the starting material compound 1, potential kinetic barriers might not poses as much of a hindrance for a transformation. The amorphous form of compound 1 was used as starting material for experiments to determine the stability range of compound 1 by equilibration at various water activity levels.
Upon completion of the suspension equilibration experiments, the recovered products were examined by Raman spectroscopy both immediately after filtration and after 30 min of drying under vacuum at room temperature. […]

[2] = Stability of amorphous material under ambient conditions (re-examination by XRPD)
Description: The amorphous material appears to be stable for at least 5 days under ambient conditions, as it was unchanged after re-examination by XRPD (data not shown).

[3] = Aqueous solubility determination (2 h equilibration in doubly distilled water, HPLC)
Protocol: Approximately 0.3 mL of doubly distilled water was added to 3-10 mg of the substance to be measured. The resulting suspension/solution was equilibrated in a temperature-controlled Eppendorf Thermomixer Comfort shaker for 2 h at 25° C. at a shaking rate of 500 rpm. The solid phase was recovered by filter centrifugation (0.10-μm PVDF membrane) and examined by FT-Raman spectroscopy. The pH of the corresponding solution was determined with a Metrohm 713 pH meter. The concentration of the solution was determined by HPLC (see below).
Standard solutions of the SP196-FD-P1 free drug of compound 1 and the L-malate salt of compound 1 (SP196-MLA-P4) were prepared in the concentration range of 0.2-0.05 mg/mL for the construction of a calibration curve.

[4] = DVS (dynamic vapor sorption) isotherm / hygroscopicity
Protocol: Projekt Messtechnik Sorptions Prüfsystem SPS 11-100n or Surface Measurement Systems DVS-1. The sample was placed on an aluminum or platinum holder on top of a microbalance and allowed to equilibrate for 2 h at 50% r.h. before starting one of two pre-defined humidity programs: • (1) 2 h at 50% r.h.; • (2) 50→0% r.h. […] (5%/h); 5 h at 0% r.h.; and • (4) 0→50% r.h. (5%/h); 2 h at 50% r.h.

SMILES	thermodynamic stability of the polymorph [1]	stability of the amorphous material (unchanged by XRPD) [2]	FT-Raman spectrum of the solid residue after aqueous solubility determination ([3]; after 2 h equilibration at 25° C. in water)	solubility at 2 h ([3]; doubly distilled water, 25 °C, pH 7.5, water, thermodynamic from solid, after 2 h equilibration at 25° C., pH=7.5 of saturated solution)	DVS final mass above the starting mass ([4]; after return from 95% r.h. to 50% r.h.)	hygroscopicity classification ([4]; based on mass gain at 85% r.h.)	DVS reversible mass loss ([4]; decreasing relative humidity from 50% r.h. to 0%)	DVS mass increase ([4]; from 50% to 85% r.h.)	DVS (total) mass increase ([4]; increasing relative humidity from 50% r.h. to 95% r.h.)	FT-Raman spectrum of the material after the DVS measurement ([4]; solid form after DVS cycle)
CCn1cc(C(=O)N2CCOCC2)c(=O)c2cc(NC3Cc4ccccc4C3)cnc21 [Form D, 1-ethyl-6-(indan-2-ylamino)-3-(morpholine-4-carbonyl)-1,8-naphthyridin-4-one]	thermodynamically less stable than Form C									
CCn1cc(C(=O)N2CCOCC2)c(=O)c2cc(NC3Cc4ccccc4C3)cnc21 [Form A, 1-ethyl-6-(indan-2-ylamino)-3-(morpholine-4-carbonyl)-1,8-naphthyridin-4-one]		at least 5 days								
CCn1cc(C(=O)N2CCOCC2)c(=O)c2cc(NC3Cc4ccccc4C3)cnc21 [Form C, 1-ethyl-6-(indan-2-ylamino)-3-(morpholine-4-carbonyl)-1,8-naphthyridin-4-one]	thermodynamically stable polymorph		unchanged	~40 µg/mL (≈ 95.6 µM)	equal to the starting mass	slightly hygroscopic (slightly hygroscopic (mass increase<2% and ≥0.2%))	~0.3 wt %	~0.2 wt %	~0.6 wt %	corresponds to the spectrum of the material before the DVS measurement
